Source: a melting point compilation (Tetko et al.; mined from patent text by program, amines drawn as free bases though some values may be those of a salt)

SMILES | melting point [°C]
Cc1c(C)c(NC(=O)CC(C)(C)C)c2c(c1C)C(O)(c1ccc(C(C)C)cc1)C(C)(C)O2 (configuration not stated) | 178 to 179
CC(=O)c1cc(F)ccc1Oc1nc2ccc(Br)cc2cc1Cc1ccccc1 | 115 to 117
COc1ccc(C2(O)OC(=O)C(c3ccc4nsnc4c3)=C2Cc2ccccc2)cc1 (configuration not stated) | 40 to 41
CC(=O)C1C(=O)CC(CCS(=O)c2ccc(C(F)(F)F)cc2)CC1=O (configuration not stated) | 99 to 100
COC(=O)C[C@H]1C(=O)OCN1C(=O)OCc1ccccc1 | 90 to 93
Cc1ccc(C23CCC(Cl)(CC2)CC3)cc1 | 105
Cc1nnc(-c2ccccc2OCC2CO2)o1 (configuration not stated) | 38 to 40
O=[N+]([O-])N=C1NCCCN1Cc1ccc(Cl)nc1 | 113 to 117
CCNC(=S)n1nc(Oc2ncc(C(F)(F)F)cc2Cl)cc1C | 74 to 75
COc1ccc(S(=O)(=O)N2CCc3cccc(-c4ccc(F)cc4)c32)cc1 | 178 to 179
O=C(O)COC1=C(C(=O)Nc2cc(Cl)cc(Cl)c2)SC2=NCCCN21 | 247
CCCCCCCCCc1ccc(Oc2cccc(C#N)c2C#N)cc1 | 74 to 81
Cn1cc2c(C3C(=O)Nc4ccc(Br)cc43)nc(NCCN)nc2n1 (configuration not stated) | 260 to 262
O=CC=CC(=C(c1ccc(F)cc1)c1ccc(F)cc1)n1nnnc1-c1ccccc1 | 198 to 200
c1ccc(OCCSCc2nnc(-c3ccc(OCCCCN4CCCCCC4)cc3)o2)cc1 | 35 to 38
COC(=O)c1cccc([N+](=O)[O-])c1NCc1ccc(-c2ccccc2C#N)cc1 | 140 to 141
CN1C(=O)C(Br)(Br)CC1c1cncc(Br)c1 (configuration not stated) | 139 to 140
C=CCc1c(O)nc(N)nc1O | > 250
CC(Cc1cc2ccccc2[nH]1)(NC(=O)OC1C2CC3CC(C2)CC1C3)C(=O)NCC(NC(=O)CCC(=O)OCc1ccccc1)c1ccccc1 (configuration not stated) | 109 to 113
CC1(C)Oc2ccc3nc(Cl)ccc3c2C(NCCc2ccccc2)C1O (configuration not stated) | 141 to 143
O=C1NC(=O)C(Cc2ccc(OCC34CC5CC(CC(C5)C3)C4)cc2)S1 (configuration not stated) | 188 to 191
Cc1c(-c2cccc(OCc3ccccc3)c2)n(Cc2ccc(OCCN3CCCCC3)cc2)c2ccc(OCc3ccccc3)cc12 | 125 to 126
Nc1ccc2ccccc2c1-c1c(P(c2ccccc2)c2ccccc2)ccc2ccccc12 | 105
Cn1cc(CCN2C(=O)c3ccccc3C2=O)c2cc(CNC=O)ccc21 | 189 to 191
O=c1c(CCCc2cccnc2)cc2cccnc2n1-c1ccc2nsnc2c1 | 174
CC(C)(C)NC(=O)OC1CCOC1=O (configuration not stated) | 104 to 106

SMILES | melting point [°C]
CC(=O)ON1C(C)(C)CC(OC(=O)c2ccc(C(=O)OC3CC(C)(C)N(OC(C)=O)C(C)(C)C3)cc2)CC1(C)C | 206 to 212
COc1cc(=O)[nH]c2cc(O)ccc2c1=O | 273 to 275
CC(=CC#N)Cn1sc2ccccc2c1=O | 128 to 130
COc1c(F)c(C)c(F)c(OC)c1CO | 80 to 81
CC(C)Cn1cnc2c(N)nc3ccc(-n4cccc4)cc3c21 | 228 to 232
N#Cc1c(C(F)(F)F)ccc(F)c1N | 100 to 102
CC(C)C(c1cncnc1C=NO)N(C)C(=O)Cc1ccccc1 (configuration not stated) | 171 to 172
CCCc1cc(Cl)c2sc(Cc3ccc(OC)cc3)c(C)c2c1O | 114 to 116
CCCCOc1c(CN)n(CC(C)C)c(=O)c2ccc(/C=C/C(N)=O)cc12 | 173 to 175
CC(C)(C)c1cc(C=O)cc(Cl)c1O | 123
Cn1nc(-c2ccc(Cl)cc2)n(C)c1=S | 113 to 115
O=C1NN=CC1=CNCCC(F)=C(F)F | 126 to 130
CCCCOc1cc(-c2ccccc2)c(OCC(=O)O)c(-c2ccccc2)c1 | 92 to 94
O=C(NS(=O)(=O)C=Cc1ccc([N+](=O)[O-])cc1)c1ccccc1 | 192 to 195
CC1=NN(c2ccccc2)C(=O)C1C=O (configuration not stated) | 178 to 180
CCC=Cc1ncc(/C=C(\Cc2cccs2)C(=O)O)n1Cc1ccccc1Cl | 224 to 226
CO[C@H]1CC[C@H]([C@H]2CC[C@H](CCC3OCCO3)CC2)CC1 | 74
CCOC(=O)NN=C(c1ccc(Cl)cc1)c1ccc(CSC)cc1 | 105 to 109
COP(=O)(CC(=O)[C@H](Cc1ccccc1)NC(=O)OC(C)(C)C)OC | 76 to 78
CCCCCCCCCCCC(=O)N1c2ccccc2C(=O)N(C(C)C)S1(=O)=O | 57.5 to 58.5
O=P1(O)Oc2ccccc2-c2cc(C(F)(F)F)ccc21 | 240
O=C(C=CCN1CCN(CC(=O)OCc2ccccc2)CC1)Nc1cc2c(Nc3ccc(F)c(Cl)c3)ncnc2cc1OCC1CC1 | 174
OC1CSC(Oc2cnc(-c3ccc(F)nc3)c(F)c2)C(O)C1O (configuration not stated) | 184
COc1cccc2c(=O)n3c(cc12)S(=O)(=O)CCC3 | 251 to 252
Nc1cccc(-c2ccc(CCN3CCN(c4nnnn4-c4ccccc4)CC3)cc2)n1 | 212 to 214
COc1ccc(C(=O)OCc2ccc(C=O)cc2)cc1C(C)(C)C | 75 to 76

SMILES | melting point [°C]
COC(=O)[C@@H]1CSCN1S(=O)(=O)c1ccc(Cl)c(COc2cccc3c(-n4ccnc4)cc(C)nc23)c1Cl | 60
O=C(O)c1cc(F)c(F)c(Br)c1Cl | 138 to 140
CCCCCCCCC1CC1C(N)=O (configuration not stated) | 109 to 110
O=C1OCCN1CCN1CCN(C2Cc3cc(Br)ccc3Sc3ccccc32)CC1 (configuration not stated) | 170 to 172
Cc1cc(NC2CCCCC2)c2[nH]ncc2n1 | 287 to 289
CC(C)(C)P(=O)(O)OCCCN | 253 to 255
Cc1cccc(Nc2cc(Nc3ccc(OCC(N)=O)cc3)ncn2)c1 | 212 to 215
COC(=O)c1ccc(C(=O)NN)cn1 | 177 to 180
CS(=O)(=O)c1ccc(-c2[nH]nc(OC3CCCC3=O)c2-c2ccc(F)cc2)cc1 (configuration not stated) | 96 to 99
Cn1ncc2c1-c1ccc(Cl)cc1C(c1ccccc1F)=NC2 | 128 to 130
COc1nc(OC)c(SC)c(OC)n1 | 90.5 to 91
Cc1c(NC(=O)c2ccc(-c3ccc(F)cc3)cc2)ccc2cc(CN3CCC(CC(=O)N4CCCCC4)CC3)cnc12 | 189 to 190
Cc1[nH]c(Cc2ccccc2)nc1CO | 134 to 138
O=C(O)c1cc(COc2ccccc2)cc(Cn2cc(C3c4ccccc4C=Cc4ccccc43)c(=S)[nH]c2=O)c1 | 160 to 165
COc1cccc(Cc2ccc(-c3cnn4c(O)ncnc34)cc2)c1 | 264 to 268
CCOC(=O)CNCc1c(N)ccc(N2CCCC2)c1Cl | 69 to 70
CCCOc1ccc(Br)c(C(C)=O)c1 | 50 to 52
CN(C)C(=O)Nc1ccc(OCC(=O)c2ccccc2)c(Cl)c1 | 148 to 150
Cc1cc(C(=O)NC2=NCCC2(c2ccccc2)c2ccccc2)[nH]n1 | 213 to 215
CC(=O)Oc1ccc(C2CC(=O)OC(=O)C2)cc1 | 140 to 143
O=C(c1cn(C(c2ccccc2)(c2ccccc2)c2ccccc2)cn1)c1cc(Cl)cc2c1OCOC2 | 175 to 182
Cc1c(NC(=O)CC(C)(C)C)cc2c(c1C)OC(C)(C)C2c1ccco1 (configuration not stated) | 126 to 127
CCN1C(=O)C(C)(C)C(=O)N(C)c2cc(CN(CCc3cccnc3)Cc3scnc3C)ccc21 | 118 to 120
CSc1nc(F)cc(F)n1 | 31 to 32
N#CC(=CC(=O)c1ccccc1)C(=O)O | 74 to 75
Cn1cc2c(c1-c1ccccc1)C(=O)c1ccccc1C2=O | 268 to 271

SMILES | melting point [°C]
Cc1c(NC(=O)CC(C)(C)C)c(C)c2c(c1-c1cccc(N)c1)OCC2c1ccc(C(C)C)cc1 (configuration not stated) | 170 to 172
CC(=O)NC1(c2ccc(CN3CCN(c4ccccn4)CC3)cc2)CC1 | 145 to 147
CC1(C)CCC(O)(c2ccc(=O)[nH]c2)CC1 | 210 to 211
Nc1c2c(nc3ccccc13)-c1ccccc1CCC2 | 190 to 192
Clc1nccnc1N1CCNCC1 | 47 to 53
COC(=O)C1CCn2c1cc(Br)c2C(=O)c1ccccc1 (configuration not stated) | 93
CC(C)[C@H](NC(=O)OCc1ccccc1)C(=O)OCc1nc2c(N)nc3ccccc3c2n1CCCCNS(C)(=O)=O | 99 to 100
COc1ccc(/C=C/C(=O)C2C(=O)CC(c3ccc(OC)cc3)C([N+](=O)[O-])C2c2ccccc2)cc1 (configuration not stated) | 164 to 165
CC1(C)Oc2ccc(C#N)cc2C(OC(=O)C2CCCN2S(=O)(=O)c2ccc([N+](=O)[O-])cc2)C1Br (configuration not stated) | 177 to 180
Cc1nccn1C(=O)Nc1ccccc1 | 205 to 207
CCCCc1ncc(/C=C(\Cc2cccs2)C(=O)O)n1Cc1ccc([N+](=O)[O-])cc1 | 198 to 200
CN(C)CC(c1ccccc1)c1nnc2n1-c1ccc(I)cc1C(c1ccccc1)=NC2 (configuration not stated) | 192 to 194
Clc1cc(Cl)cc(CC(Cl)CC(Cl)(Cl)Cl)c1 (configuration not stated) | 44.5 to 46.5
CCCCCCCCCCCCCCCC(=O)C1C(=O)CC(C#N)CC1=O (configuration not stated) | 66 to 69
CCCCCS(=O)(=O)NCC(C)Cc1ccc(OCCOC)cc1Oc1ncc(C(F)(F)F)cc1Cl (configuration not stated) | 80 to 82
COC(=O)c1ccc2c(C)csc2c1 | 46 to 47
CCOC(=O)CSc1nc(Cl)cc(Nc2ccc(OC)cc2)n1 | 96 to 97.5
COCCCN1CC[C@@H](CNC(=O)c2cc(Cl)c(N)c3c2OC(C)(C)C3)[C@H](O)C1 (relative stereo) | 97
Cc1cc(-c2cc(C(F)(F)F)n3ncc(-c4nc(-c5ccc(S(N)(=O)=O)s5)no4)c3n2)ccc1C(F)(F)F | 324
COC(=O)c1ccc(C(=O)NCc2cccc(O)c2)cc1C | 100 to 103
Cn1c(CCNC(=O)C(F)(F)F)cc2ccccc21 | 124 to 126
COC(=O)c1nc2nccc(S)n2n1 | 206
COc1cc2c(c(O)c1OC)C(Cc1ccc(F)cc1)NCC2 (configuration not stated) | 195 to 200
O=c1[nH]cnn1-c1ccc(C(F)(F)F)cc1 | 221
